Legend:
Assay type in all cases: in vivo
[1] = test system: barnyardgrass (Echinochloa crus-galli); assay: Test A preemergence, barnyardgrass; conditions: Preemergence; for Barnyardgrass plant response rating: 125 g ai/ha, visual injury on 0 to 100 scale (0 no effect, 100 complete control), approximately 10 days; for Plant response rating, Barnyardgrass: 500 g ai/ha, 0 to 100 scale (0 no effect, 100 complete control)
Description: (§1) Seeds of plant species selected from barnyardgrass (Echinochloa crus-galli), kochia (Bassia scoparia), ragweed (common ragweed, Ambrosia artemisiifolia), Ryegrass, Italian (Italian ryegrass, Lolium multiflorum), Foxtail, Giant (giant foxtail, Setaria faberi), and pigweed (Amaranthus retroflexus) were planted into a blend of loam soil and sand and treated preemergence with a directed soil spray using test chemicals formulated in a non-phytotoxic solvent mixture which included a surfactant. At the same time, plants selected from these weed species and also wheat (Triticum aestivum), corn (Zea mays), blackgrass (Alopecurus myosuroides), and galium (catchweed bedstraw, Galium aparine) were planted in pots containing the same blend of loam soil and sand and treated with postemergence applications of test chemicals formulated in the same manner. Plants ranged in height from 2 to 10 cm and were in the one- to two-leaf stage for the postemergence treatment. […] A dash (-) response means no test result.

kochia (Bassia scoparia) [2] = assay: Test A preemergence, kochia; conditions: Preemergence; for Kochia plant response rating: 125 g ai/ha, visual injury on 0 to 100 scale (0 no effect, 100 complete control), approximately 10 days; for Plant response rating, Kochia: 500 g ai/ha, 0 to 100 scale (0 no effect, 100 complete control)
Description: as §1

[3] = test system: ragweed (common ragweed, Ambrosia artemisiifolia); assay: Test A preemergence, ragweed; conditions: Preemergence; for Ragweed plant response rating: 125 g ai/ha, visual injury on 0 to 100 scale (0 no effect, 100 complete control), approximately 10 days; for Plant response rating, Ragweed: 500 g ai/ha, 0 to 100 scale (0 no effect, 100 complete control)
Description: as §1

[4] = test system: Ryegrass, Italian (Italian ryegrass, Lolium multiflorum); assay: Test A preemergence, Ryegrass, Italian; conditions: Preemergence; for Ryegrass, Italian plant response rating: 125 g ai/ha, visual injury on 0 to 100 scale (0 no effect, 100 complete control), approximately 10 days; for Plant response rating, Ryegrass, Italian: 500 g ai/ha, 0 to 100 scale (0 no effect, 100 complete control)
Description: as §1

[5] = test system: Foxtail, Giant (giant foxtail, Setaria faberi); assay: Test A preemergence, Foxtail, Giant; conditions: Preemergence; for Foxtail, Giant plant response rating: 125 g ai/ha, visual injury on 0 to 100 scale (0 no effect, 100 complete control), approximately 10 days; for Plant response rating, Foxtail, Giant: 500 g ai/ha, 0 to 100 scale (0 no effect, 100 complete control)
Description: as §1

[6] = test system: barnyardgrass (Echinochloa crus-galli); assay: Test A postemergence, barnyardgrass; conditions: Postemergence, 0 to 100 scale (0 no effect, 100 complete control); for Barnyardgrass plant response rating: visual injury vs untreated controls after approx. 10 days
Description: as §1

kochia (Bassia scoparia) [7] = assay: Test A postemergence, kochia; conditions: Postemergence, 0 to 100 scale (0 no effect, 100 complete control); for Kochia plant response rating: visual injury vs untreated controls after approx. 10 days
Description: as §1

[8] = test system: ragweed (common ragweed, Ambrosia artemisiifolia); assay: Test A postemergence, ragweed; conditions: Postemergence, 0 to 100 scale (0 no effect, 100 complete control); for Ragweed plant response rating: visual injury vs untreated controls after approx. 10 days
Description: as §1

[9] = test system: Ryegrass, Italian (Italian ryegrass, Lolium multiflorum); assay: Test A postemergence, Ryegrass, Italian; conditions: Postemergence, 0 to 100 scale (0 no effect, 100 complete control); for Ryegrass, Italian plant response rating: visual injury vs untreated controls after approx. 10 days
Description: as §1

[10] = test system: Foxtail, Giant (giant foxtail, Setaria faberi); assay: Test A postemergence, Foxtail, Giant; conditions: Postemergence, 0 to 100 scale (0 no effect, 100 complete control); for Foxtail, Giant plant response rating: visual injury vs untreated controls after approx. 10 days
Description: as §1

[11] = test system: pigweed (Amaranthus retroflexus); assay: Test A postemergence, pigweed; conditions: Postemergence, 0 to 100 scale (0 no effect, 100 complete control); for Pigweed plant response rating: visual injury vs untreated controls after approx. 10 days
Description: as §1

[12] = test system: wheat (Triticum aestivum); assay: Test A postemergence, wheat; conditions: Postemergence, 0 to 100 scale (0 no effect, 100 complete control); for Wheat plant response rating: visual injury vs untreated controls after approx. 10 days
Description: as §1

corn (Zea mays) = assay: Test A postemergence, corn; conditions: Postemergence, 0 to 100 scale (0 no effect, 100 complete control); for Corn plant response rating: visual injury vs untreated controls after approx. 10 days
Description: as §1

[13] = test system: blackgrass (Alopecurus myosuroides); assay: Test A postemergence, blackgrass; conditions: Postemergence, 0 to 100 scale (0 no effect, 100 complete control); for Blackgrass plant response rating: visual injury vs untreated controls after approx. 10 days
Description: as §1

[14] = test system: galium (catchweed bedstraw, Galium aparine); assay: Test A postemergence, galium; conditions: Postemergence, 0 to 100 scale (0 no effect, 100 complete control); for Galium plant response rating: visual injury vs untreated controls after approx. 10 days
Description: as §1

[15] = 125 g ai/ha, visual injury approx. 10 days
[16] = 500 g ai/ha, visual injury, approx. 10 days

Structure (SMILES)	Barnyardgrass plant response rating [1]	Plant response rating, Barnyardgrass [1]	Kochia plant response rating (kochia (Bassia scoparia) [2])	Plant response rating, Kochia (kochia (Bassia scoparia) [2])	Ragweed plant response rating [3]	Plant response rating, Ragweed [3]	Ryegrass, Italian plant response rating [4]	Plant response rating, Ryegrass, Italian [4]	Foxtail, Giant plant response rating [5]	Plant response rating, Foxtail, Giant [5]	Barnyardgrass plant response rating ([6]; 500 g ai/ha)	Kochia plant response rating (kochia (Bassia scoparia) [7]; 500 g ai/ha)	Ragweed plant response rating ([8]; 500 g ai/ha)	Ryegrass, Italian plant response rating ([9]; 500 g ai/ha)	Foxtail, Giant plant response rating ([10]; 500 g ai/ha)	Pigweed plant response rating ([11]; 500 g ai/ha)	Wheat plant response rating ([12]; 500 g ai/ha)	Corn plant response rating (corn (Zea mays); 500 g ai/ha)	Blackgrass plant response rating ([13]; 500 g ai/ha)	Galium plant response rating ([14]; 500 g ai/ha)	other results
COC1CCCN(C(=O)c2cc(NS(=O)(=O)C(F)(F)F)c(Cl)cc2C)C1 (stereo not shown) [Compound 146]	90	100	80	80	60	70	90	100	100	100	80	50	90	70	90	80	60	20	20	90	Plant response rating, Barnyardgrass ([6]; 125 g ai/ha): 40; Plant response rating, Kochia (kochia (Bassia scoparia) [7]; 125 g ai/ha): 40; Plant response rating, Ragweed ([8]; 125 g ai/ha): 60; Plant response rating, Ryegrass, Italian ([9]; 125 g ai/ha): 30; Plant response rating, Foxtail, Giant ([10]; 125 g ai/ha): 20; Plant response rating, Pigweed ([11]; 125 g ai/ha): 50; Plant response rating, Wheat ([12]; 125 g ai/ha): 50; Plant response rating, Corn (corn (Zea mays); 125 g ai/ha): 10; Plant response rating, Blackgrass ([13]; 125 g ai/ha): 0; Plant response rating, Galium ([14]; 125 g ai/ha): 90
CCc1cc(-c2cc(N(S(=O)(=O)C(F)(F)F)S(=O)(=O)C(F)(F)F)c(C)cc2C)c(=O)n(C)n1 [Compound 28]	60	100	70	90	0	30	50	90	30	90	–	–	–	–	–	–	–	–	–	–	Plant response rating, Barnyardgrass [6, 15]: 0; Plant response rating, Barnyardgrass [6, 16]: 80; Plant response rating, Kochia (kochia (Bassia scoparia) [7]; [15]): 0; Plant response rating, Kochia (kochia (Bassia scoparia) [7]; [16]): 30; Plant response rating, Ragweed [8, 15]: 20; Plant response rating, Ragweed [8, 16]: 80; Plant response rating, Ryegrass, Italian [9, 15]: 0; Plant response rating, Ryegrass, Italian [9, 16]: 0; Plant response rating, Foxtail, Giant [10, 15]: 0; Plant response rating, Foxtail, Giant [10, 16]: 10; Plant response rating, Pigweed [11, 15]: 0; Plant response rating, Pigweed [11, 16]: 40; Plant response rating, Wheat [12, 15]: 30; Plant response rating, Wheat [12, 16]: 50; Plant response rating, Corn (corn (Zea mays); [15]): 0; Plant response rating, Corn (corn (Zea mays); [16]): 0; Plant response rating, Blackgrass [13, 15]: 0; Plant response rating, Blackgrass [13, 16]: 30; Plant response rating, Galium [14, 15]: 20; Plant response rating, Galium [14, 16]: 70
Cc1cc(C)c(C2=NOC(C(C)(C)C)C2)cc1NS(=O)(=O)C(F)(F)F (stereo not shown) [Compound 108]	70	100	80	90	20	60	90	100	80	100	90	80	80	70	30	60	70	50	50	90	Plant response rating, Barnyardgrass [6, 15]: 20; Plant response rating, Kochia (kochia (Bassia scoparia) [7]; [15]): 30; Plant response rating, Ragweed [8, 15]: 40; Plant response rating, Ryegrass, Italian [9, 15]: 0; Plant response rating, Foxtail, Giant [10, 15]: 0; Plant response rating, Pigweed [11, 15]: 0; Plant response rating, Wheat [12, 15]: 30; Plant response rating, Corn (corn (Zea mays); [15]): 0; Plant response rating, Blackgrass [13, 15]: 0; Plant response rating, Galium [14, 15]: 70
Cc1cc(C)c(C2=NOC3CCCC23)cc1NS(=O)(=O)C(F)(F)F (stereo not shown) [Compound 166]	100	100	90	100	20	80	70	100	80	100	90	80	80	90	60	90	70	50	20	90	Plant response rating, Barnyardgrass ([6]; 125 g ai/ha): 90; Plant response rating, Kochia (kochia (Bassia scoparia) [7]; 125 g ai/ha): 50; Plant response rating, Ragweed ([8]; 125 g ai/ha): 40; Plant response rating, Ryegrass, Italian ([9]; 125 g ai/ha): 90; Plant response rating, Foxtail, Giant ([10]; 125 g ai/ha): 50; Plant response rating, Pigweed ([11]; 125 g ai/ha): 40; Plant response rating, Wheat ([12]; 125 g ai/ha): 70; Plant response rating, Corn (corn (Zea mays); 125 g ai/ha): 10; Plant response rating, Blackgrass ([13]; 125 g ai/ha): 10; Plant response rating, Galium ([14]; 125 g ai/ha): 80
Cc1cc(C)c(C2=NOC3(CCSCC3)C2)cc1NS(=O)(=O)C(F)(F)F [Compound 176]	70	90	70	90	40	90	90	100	100	100	90	50	90	80	90	90	60	80	70	90	Plant response rating, Barnyardgrass ([6]; 125 g ai/ha): 80; Plant response rating, Kochia (kochia (Bassia scoparia) [7]; 125 g ai/ha): 40; Plant response rating, Ragweed ([8]; 125 g ai/ha): 60; Plant response rating, Ryegrass, Italian ([9]; 125 g ai/ha): 60; Plant response rating, Foxtail, Giant ([10]; 125 g ai/ha): 90; Plant response rating, Pigweed ([11]; 125 g ai/ha): 60; Plant response rating, Wheat ([12]; 125 g ai/ha): 60; Plant response rating, Corn (corn (Zea mays); 125 g ai/ha): 70; Plant response rating, Blackgrass ([13]; 125 g ai/ha): 40; Plant response rating, Galium ([14]; 125 g ai/ha): 90
Cc1cc(C)c(C2=NOC3(C2)CC(C)OC(C)C3)cc1NS(=O)(=O)C(F)(F)F (single isomer, unassigned) [Compound 173]	90	90	60	90	90	90	90	100	100	100	90	80	90	80	90	90	70	80	60	90	Plant response rating, Barnyardgrass ([6]; 125 g ai/ha): 80; Plant response rating, Kochia (kochia (Bassia scoparia) [7]; 125 g ai/ha): 50; Plant response rating, Ragweed ([8]; 125 g ai/ha): 80; Plant response rating, Ryegrass, Italian ([9]; 125 g ai/ha): 70; Plant response rating, Foxtail, Giant ([10]; 125 g ai/ha): 90; Plant response rating, Pigweed ([11]; 125 g ai/ha): 80; Plant response rating, Wheat ([12]; 125 g ai/ha): 70; Plant response rating, Corn (corn (Zea mays); 125 g ai/ha): 70; Plant response rating, Blackgrass ([13]; 125 g ai/ha): 50; Plant response rating, Galium ([14]; 125 g ai/ha): 90
Cc1cc(C)c(N(S(=O)(=O)C(F)(F)F)S(=O)(=O)C(F)(F)F)cc1C1=NOC2(CCSCC2)C1 [Compound 114]	50	80	30	70	0	10	70	90	90	100	70	40	30	40	80	80	60	50	50	90	Plant response rating, Barnyardgrass [6, 15]: 20; Plant response rating, Kochia (kochia (Bassia scoparia) [7]; [15]): 10; Plant response rating, Ragweed [8, 15]: 0; Plant response rating, Ryegrass, Italian [9, 15]: 40; Plant response rating, Foxtail, Giant [10, 15]: 50; Plant response rating, Pigweed [11, 15]: 60; Plant response rating, Wheat [12, 15]: 60; Plant response rating, Corn (corn (Zea mays); [15]): 20; Plant response rating, Blackgrass [13, 15]: 30; Plant response rating, Galium [14, 15]: 90
COC1CCN(C(=O)c2cc(N(S(=O)(=O)C(F)(F)F)S(=O)(=O)C(F)(F)F)c(C)cc2C)C1 (stereo not shown) [Compound 138]	–	–	–	–	–	–	–	–	–	–	–	–	–	–	–	–	–	–	–	–	Plant response rating, Ragweed ([8]; 125 g ai/ha): 30; Plant response rating, Ryegrass, Italian ([9]; 125 g ai/ha): 0; Plant response rating, Pigweed ([11]; 125 g ai/ha): 90; Plant response rating, Wheat ([12]; 125 g ai/ha): 30

Reference: patent US20230278972A1, “SUBSTITUTED HALOALKYL SULFONANILIDE HERBICIDES” (FMC Corporation, priority 2020, published 2023)
